Source: US9688687B2, “Polymorphic forms of icotinib phosphate and uses thereof” (BETTA PHARMACEUTICALS CO., LTD., priority 2013, dated 2017)
Structures can show the parent of a compound that is named as a salt. Where two headings read alike, the source gives them in different places.

Experiment: Pharmacokinetic study of Icotinib hydrochloride and Polymorph Form II of Icotinib phosphate, oral suspension in fasted SD rats
Format: in vivo
Settings: dose equivalent to 50 mg/kg Icotinib, plasma; for AUC(0-t): read-out: AUC(0-24)
Text: Drugs and reagents: The Icotinib hydrochloride used in this study was of Crystalline Form I disclosed by the WO2010/003313. Polymorph Form II of Icotinib phosphate and Icotinib hydrochloride were ground to fine particles. The material content (purity) was not less than 99.0%. Sodium carboxymethyl cellulose was medical supply graded.
Experimental animals: SD rats were divided to an Icotinib hydrochloride group and a Polymorph Form II group, with both groups consisting of half males and half females.
Pharmaceutical preparation: the amount of each compound was weighed and then sodium carboxymethyl cellulose was added to result in the test compound's concentration of 0.5%. The solid mixture was then added to prepare a suspension thereof at a final concentration of […] in water.
Administration and sample collection: each suspension was administered orally to fasted SD rats at a dose equivalent to 50 mg/kg Icotinib in a dose volume of 5 ml/kg. 0.4 ml of blood was collected in EDTA-K pre anticoagulant tubes at time intervals of 0.5, 1, 1.5, 2, 4, 6, 8 and 24 hrs after the administration of the test compound, centrifuged at 3000 rpm for 10 minutes, and 120 μL plasma was collected and kept in cold storage.
Samples were analyzed by high performance liquid chromatography. The chromatographic conditions utilized C18-silane bonded silica as stationary phase, 0.02 mol/L of sodium dihydrogen phosphate in […] (40:60, using sodium hydroxide solution to adjust pH to 5.0) as the mobile phase and a detection wavelength of 334 nm. PK profile comparison of Crystalline Form I of Icotinib Hydrochloride and Polymorph Form II of Icotinib phosphate was summarized in Table 1 and FIG. 5.

[1] = female, SD, rat, po, 50 mg/kg, female SD rats
[2] = male, SD, rat, po, 50 mg/kg, male SD rats

T1/2 (female SD rats, hydrochloride) [h]	AUC(0-inf) [1] [ng·h/mL]	AUC(0-t) [1] [ng·h/mL]	Cmax (female, SD, rat, po, 50 mg/kg, female SD rats, read-out: Cmax) [ng/mL]	Tmax (female, SD, rat, po, 50 mg/kg, female SD rats, read-out: Tmax) [h]	AUC(0-24) (male SD rats, hydrochloride) [ng·h/mL]	AUC(0-∞) (male SD rats, hydrochloride) [ng·h/mL]	half-life [2] [h]	Cmax (male, SD, rat, po, 50 mg/kg, male SD rats, read-out: Cmax) [ng/mL]	Tmax (male, SD, rat, po, 50 mg/kg, male SD rats, read-out: Tmax) [h]	AUC(0-24) (female SD rats) [ng·h/mL]	AUC(0-∞) (female SD rats) [ng·h/mL]	Cmax (female SD rats) [ng/mL]	T1/2 (female SD rats) [h]	Tmax (female SD rats) [h]	T1/2 (male SD rats) [h]	Tmax (male SD rats) [h]	AUC(0-inf) [2] [ng·h/mL]	AUC(0-t) [2] [ng·h/mL]	Compound
6.2 ± 3.5	124000 ± 13000	113000 ± 24000	10200 ± 1900	3 ± 1.7	19000 ± 7100	19100 ± 7200	2.9 ± 0.4	3400 ± 400	2.3 ± 3.2	–	–	–	–	–	–	–	–	–	C#Cc1cccc(Nc2ncnc3cc4c(cc23)OCCOCCOCCO4)c1 [Icotinib hydrochloride]
–	–	–	–	–	–	–	–	–	–	155200 ± 20200	156700 ± 17800	13100 ± 2400	2.9 ± 0.4	4.7 ± 1.2	2.6 ± 0.2	2.3 ± 1.5	28700 ± 8100	28600 ± 8100	C#Cc1cccc(Nc2ncnc3cc4c(cc23)OCCOCCOCCO4)c1 [Icotinib Phosphate polymorph form II, Icotinib phosphate]
